The assay concerns NIH:OVCAR-3 xenograft. Description: OVCAR-3 ovarian cancer xenograft. The class given is in vivo. The following applies: for tumor volume during treatment: Phor18-LHRH 0.02-2 mg/kg, CLIP71 2 mg/kg, cisplatinum 10 mg/kg. Here is the method:
The xenograft model of the OVCAR-3 human ovarian cancer cell line that present functional LHRH receptors was used in this study. OVCAR-3 represents a slow growing xenograft model and secretes the tumor marker (cancer antigen 125, or […]). It's secretion can be used as treatment response and is a measure of drug activity.
In brief, Nu/Nu female mice, inbred strain, age 5 weeks (Harlan-Sprague Dawley) were injected subcutaneously with a NIH:OVCAR-3 cells/Matrigel suspension (4.6×10^6 cells/mouse). Treatment was started on day 33 after tumor cell injection when the tumors were established and continued on days 41 and 47. The doses for the 3 weekly injections were 0.02, 0.2 and 2 mg/kg body weight, given as a single bolus intravenous injection via lateral tail vein administered once a week for three weeks on days 33, 41 and 47. Necropsies were conducted on day 52. Data are presented as mean SEM. Arrows show dosing.
A group of 9 tumor bearing mice was sacrificed on day 33 and served as baseline group. All mice were necropsied 51-52 days after tumor cell injection. Tumor volumes and bodyweights were recorded twice weekly during the study, as well as overall veterinarian examination of mice was conducted.
Primary tumors, liver, kidney, pancreas, heart, lung, and spleen were collected, fixed in formalin and prepared for histological evaluation. Tumor weights were measured at necropsy, part of the tumors were frozen at −80° C. for LH/CG and LHRH receptor assay determination.
As a biomarker for drug activity, CA125 was determined in serum, collected from each individual mouse at necropsy using a Enzyme Linked Immunoassay for quantitative determination of ovarian cancer antigen CA125 (Assay kit Genway, Biotech, Inc. San Diego, Calif., Catalog #40-052-115009, # BC-1013 according to the manufacturer).
LHRH receptor levels were assessed from formalin fixed tumors. Quantitative immunoperoxidase image analysis was conducted with the Ventana Image Analysis System (VIAS) adjunctive computer assisted image analysis system functionally connected to an interactive microscope (Axio Imager). The quantitative analysis was conducted with the program for quantification of Her2/neu receptor that included morphometric and colorimetric analysis. Receptor status results were reported as percentage of cells showing positive staining of the LHRH receptors under the following criteria: 0 non-immunoreactive, 1+: 1-25% positive, 2+: 26-50% positive, 3+: 51-75% positive cells.

For the compound `N.N.[Cl][Pt][Cl]` [Cisplatinum, reference compound], the “tumor volume during treatment” value was “no reduction in tumor volume”. Besides, the “tumor volume during treatment” value (listed as cisplatinum) was “tumor growth was observed”. Besides, the “tumor weights at necropsy” value (mouse, in vivo) is on record as “not effective in reducing tumor weights”.
